Consider eleven molecules from ChEMBL document CHEMBL6109055, “Naphtho[1,2-b][1,4]diazepinedione-Based P2X4 Receptor Antagonists from Structure-Activity Relationship Studies toward PET Tracer Development” (J Med Chem, 2025).

One series deals with P2X purinoceptor 4 (Homo sapiens, UniProt Q99571). The experiment in a line: Antagonist activity at human P2X4 receptor overexpressed in human 1321N1 cells assessed as inhibition of ATP-induced calcium responses by Fluo-4 AM/Ca2+ Flux assay. The class given is cell-based. (A change in cytosolic calcium serves as a functional read-out for many receptors and channels.)
P2X purinoceptor 4, sequence (Q99571 whole entry): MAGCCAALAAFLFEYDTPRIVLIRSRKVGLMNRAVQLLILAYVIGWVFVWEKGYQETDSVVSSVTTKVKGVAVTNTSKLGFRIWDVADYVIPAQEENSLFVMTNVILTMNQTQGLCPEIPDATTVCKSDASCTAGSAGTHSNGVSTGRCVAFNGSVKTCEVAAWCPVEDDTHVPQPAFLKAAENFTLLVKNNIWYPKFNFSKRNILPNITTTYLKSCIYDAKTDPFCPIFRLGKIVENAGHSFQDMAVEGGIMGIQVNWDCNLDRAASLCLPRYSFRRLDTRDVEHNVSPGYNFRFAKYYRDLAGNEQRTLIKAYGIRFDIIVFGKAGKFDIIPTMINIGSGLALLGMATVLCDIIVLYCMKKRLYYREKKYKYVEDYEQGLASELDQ
The nature of series [1]: Lipophilicity, logD of compound in n-octanol and buffer at pH 7.4 by LC-MS analysis. Type of series: physicochemical.
Series [2] in a line: Metabolic stability in C57BL/6 mouse liver microsomes assessed as remaining parent compound by UPLC-UV/MS analysis. The class given is ADME, Microsome. In general terms: Liver microsomes are a subcellular fraction often used to study metabolism.
The nature of series [3]: Plasma protein binding in unknown origin. The class given is ADME, cell-free. Particulars: read-out: PPB (converted); call rule not given here.
Series [4] in a line: In vivo biodistribution in adult female C57Bl/6 mouse assessed as accumulation in bladder at 5 MBq, iv measured after 15 to 85 mins by PET imaging analysis. Type of series: ADME, organism-based, Urinary bladder. The settings on record: time 15-85 min.
Series [5] in a line: Octanol/PBS partition coefficient, log D of the radiolabeled compound at 420 to 460 kBq at pH 7.4 by gamma-counting analysis. Particulars: dose 420-460 kBq. The class given is physicochemical.
Series [6] can be described thus: In vivo biodistribution in adult female C57Bl/6 mouse assessed as accumulation in intestine at about 5 MBq, iv measured after 2 to 85 mins by PET imaging analysis. Type of series: ADME, organism-based. Particulars: time 2-85 min.
The nature of series [7]: Stability in mouse serum measured up to 90 mins at 3.1 to 8.7 MBq by analytical radio-HPLC analysis. The class given is ADME, cell-free. The settings on record: dose 3.1-8.7 MBq, read-out: Stability.
Series [8] can be described thus: Stability in human serum measured up to 90 mins at 3.1 to 8.7 MBq by analytical radio-HPLC analysis. The settings on record: dose 3.1-8.7 MBq, read-out: Stability. The class given is ADME, cell-free.
For the next series, the system named is THP-1. The experiment in a line: Inhibition of NLRP3 inflammasome activation in LPS-activated human THP-1 cells assessed as inhibition of LPS/ATP induced IL-1beta secretion at 100 nM preincubated with PMA for 24 hrs followed further stimulated with LPS for 3 hrs and further incubated with compound and ATP for 30 mins by ELISA method. The class given is cell-based.

A short description of series [9]: In vivo biodistribution in adult female C57Bl/6 mouse assessed as accumulation in bladder at 5 MBq, iv measured after 2 to 85 mins by PET imaging analysis. The class given is ADME, organism-based, Urinary bladder. Particulars: time 2-85 min.
Series [10] is described as follows: In vivo biodistribution in adult female C57Bl/6 mouse assessed as accumulation in gall bladder at about 5 MBq, iv measured after 30 mins by PET imaging analysis. The class given is ADME, organism-based. The settings on record: 0.5 h.
A short description of series [11]: In vivo biodistribution in adult female C57Bl/6 mouse assessed as accumulation in liver at about 5 MBq, iv measured after 15 mins by PET imaging analysis. Type of series: ADME, organism-based. Particulars: 0.25 h.

On to `O=C1CC(=O)N(c2ccc(NS(=O)(=O)Cc3ccc(F)cc3Cl)cc2)c2ccc3ccccc3c2N1`, for which the IC50 at P2X purinoceptor 4 (read-out: IC50) was found to be 23 nM. The logD (in general, lipophilicity at a set pH, counting ionised and neutral species) in [1] is 3.71. In series [2], the Stability is on record as 58%. Besides, the fraction unbound in [3] is under 0.02.

For `O=C1CC(=O)N(c2ccc(NS(=O)(=O)c3cccnc3F)cc2)c2ccc3ccccc3c2N1`, the IC50 on P2X purinoceptor 4 (read-out: IC50) was 1120 nM; on P2X purinoceptor 4 (read-out: pIC50 (converted)) it was 1100 nM. Besides, the log distribution coefficient (logD) in series [1] is 1.78. Further, in [2], the Stability worked out at 95%. For the same molecule, the fraction unbound in [3] is 0.06.

As to `O=C1CC(=O)N(c2ccc(NS(=O)(=O)c3cc(F)ccc3Cl)cc2)c2ccc3ccccc3c2N1`, on P2X purinoceptor 4 (read-out: IC50), the IC50 turned out to be 135 nM. The logD in [1] amounted to 3.25. Besides, the Stability in series [2] stood at 98%. In addition, the fraction unbound in series [3] is under 0.02.

`Cc1cc(F)ccc1CS(=O)(=O)Nc1ccc(N2C(=O)CC(=O)Nc3c2ccc2ccccc32)nc1`: the IC50 at P2X purinoceptor 4 (read-out: IC50) was determined as 25 nM. The molecule further showed a logD in [1] of 2.36. Besides, in series [2], the Stability is 57%. Further, in series [3], the fraction unbound is 0.05.

For the molecule `Cc1cc([18F])ccc1CS(=O)(=O)Nc1ccc(N2C(=O)CC(=O)Nc3c2ccc2ccccc32)cc1`, the Drug uptake entry in [4] and in series [6] was “Active” each time. This molecule displayed a logD in series [5] of 3.43. Besides, the remaining at […] in series [7] and in series [8] was over 99% each time.

On to `Cc1cc(F)ccc1S(=O)(=O)Nc1ccc(N2C(=O)CC(=O)Nc3c2ccc2ccccc32)cc1`, for which the Stability in series [2] is given as 93%. The inhibition result in the series with THP-1 is “Active; Compund More Potent Than Bay1797”. In addition, in series [3], the fraction unbound is under 0.02.

Regarding `Cc1cc([18F])ccc1S(=O)(=O)Nc1ccc(N2C(=O)CC(=O)Nc3c2ccc2ccccc32)cc1`, the Drug uptake entry in [9] was “Not_active”; in [10] it was “Active”; in [11] it was “Active”. The same molecule displayed a logD in series [5] of 3.5. Also, the remaining at […] in series [7] and in series [8] was over 99% each time.

Turning to `Cc1cc(F)ccc1CS(=O)(=O)Nc1ccc(N2C(=O)CC(=O)Nc3c2ccc2ccccc32)cn1`, at P2X purinoceptor 4 (read-out: IC50), the IC50 came to 14 nM. Besides, the logD in [1] was 2.59. Also, the Stability in series [2] was found to be 67%. In series [3], the fraction unbound is 0.03.

`O=C1CC(=O)N(c2ccc(NS(=O)(=O)c3ccc(F)cc3Cl)cc2)c2ccc3ccccc3c2N1`: at P2X purinoceptor 4 (read-out: IC50), the IC50 is 128 nM. The molecule also displayed a logD in series [1] of 3.55. Further, the Stability in [2] is reported as 93%. In addition, the fraction unbound in [3] is under 0.02.

Regarding `O=C1CC(=O)N(c2ccc(NS(=O)(=O)Cc3ccccc3Cl)cc2)c2ccc3ccccc3c2N1`, in [1], the logD stood at 3.39. The Stability in [2] came out at 71%. Also, the fraction unbound in series [3] is under 0.02.

For `Cc1cc(F)ccc1CS(=O)(=O)Nc1ccc(N2C(=O)CC(=O)Nc3c2ccc2ccccc32)cc1`, at P2X purinoceptor 4 (read-out: pIC50 (converted)), the IC50 was 7.59 nM. For the same molecule, in series [2], the Stability came out at 64%. In addition, the inhibition result with THP-1 is reported as “Active; Compund More Potent Than Bay1797”. In addition, the fraction unbound in series [3] is under 0.02.
